Laboratory results published in patent US8178688B2, “Benzamidine derivatives, process for the preparation thereof and pharmaceutical composition comprising the same” (Dong Wha Pharmaceutical Co., Ltd., priority 2004, dated 2012).
Read-outs that look alike come from different tables or passages of the source.

Key:
[1] = test system: osteoclast differentiation; test: Inhibitory effects on osteoclast differentiation (co-culture of bone marrow cells with osteoblast, TRAP staining); format: cell-based, mice; conditions: for inhibition at 1 µM: Mus musculus, Osteoclast, 168 h, read-out: % inhibitory activity on osteoclastogenesis
Method in brief: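 Bone marrow cells from 6–8-week male ddY mice co-cultured with neonatal ICR mouse calvarial osteoblasts in α-MEM/FBS with dexamethasone (10^−7M) and vitamin D3 (10^−8M) for 7 days, compound and medium renewed every 2–3 days. TRAP-positive cells with ≥3 nuclei counted; inhibition given as percent of control.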

[2] = test system: ovariectomized ddY mouse; test: Therapeutic effect in the ovariectomized osteoporetic mouse model (trabecular bone volume of the femur); format: in vivo, ddY mice; conditions: 50 mg/kg/day oral gavage for 4 weeks from 4 weeks after ovariectomy, salts (methansulfonic acid or HCl); for change in vivo at 50 mg/kg: Mus musculus, 672 h, read-out: Changes on TBV (% changes vs vehicle control)
Experimental: The therapeutic effects of each benzamidine derivates were evaluated on the ovariectomized ddY mouse. Benzamidine derivates were dosed from 4 weeks after operation for 4 weeks and the changes on the trabecular bone volume (TBV) of the femur were observed via histomorphometry.
Female ddY mice (6-wk old upon receipt, SLC, Japan) were used after acclimatization for 7 days. Animals were allocated 5 per polycarbonate cage in a temperature (20-25° C.) and humidity (30-35%) controlled room. Light:dark cycle was 12 hr:12 hr and feed (Samyang, Korea) and water were supplied free to access.
Salts of benzamidine derivates (Methansulfonic acid or HCl) were used for the test substances of this invention. Test substances are dissolved and/or suspended in injectable distilled water and administered at a dosage volume of 10 ml/kg by oral gavage. All test substances are dosed from 4 weeks after operation for 4 weeks at 50 mg/kg/day.
To induce estrogen-deficient osteoporosis, bilateral ovaries are removed and then closed by routine methods. Operation was conduct under Ketamine hydrochloride and xylazine hydrochloride anesthesia.
The left femur of each mouse were separated at sacrifice, and fixed in 10% neutral buffered formalin (NBF), then decalcified in decalcifying solution (24.4% formic acid, and 0.5N sodium hydroxide) for 5 days (mixed decalcifying solution was exchanges once a day for 5 days). After the dexalcification, the femur was embedded in paraffin, sectioned (3˜4 μm) and stained with hematoxylin-eosin stain.
TBV was calculated using automated image analysis (analySIS Image Processing; SIS, Germany) under magnification of ×200 in the uniform area of trochlea epiphyseal regions (growth plate regions were excluded) of prepared histological specimens. TBV was calculated as percentage (%) levels.
The changes of TBV compared to that of vehicle control are calculated as following Equation 1 to help the understanding of the efficacy of test substances. Percentage changes=[((TBV of a−TBV of b)/TBV of b)×100] Equation 1

[3] = test system: cells; test: Cytotoxicity test (MTT); format: cell-based; conditions: 10^−6M, 72 hrs, compared with the control group
Experimental: Cytotoxic effect of benzamidine derivatives was evaluated by the experiment described below.
The test substance was diluted in appropriate solvent at 10^−2M concentration. […] Cells to be used in cytotoxitic test were plated on a 96-well microplate in a dose of 1×10^4 cell/100 μL per well and cultured for 72 hrs. 25 μL of MTT [3-(4,5-dimethyl-2-thiazolyl)-2,5-diphenyl-2H-tetrazolium bromide] dissolved in PBS at 2 mg/mL were added before 4 hrs of the end of culture. After reaction, the plates were centrifuged, medium was decanted and 100 μL of DMSO was added to dissolve formazan. Lastly, the absorbance of developed plates was measured at 540 nm.

[4] = 1 m, co-culture of bone marrow cells and osteoblast, 7 days, TRAP-positive osteoclasts versus controls
[5] = 1 μm, co-culture of bone marrow cells and osteoblast, 7 days, TRAP-positive osteoclasts versus controls

| SMILES | inhibition at 1 µM [1, 4] | change in vivo at 50 mg/kg [2] | Survival rates of the cells ([3]; MC3T3-E1 cells) | Survival rates of the cells ([3]; ST2 cells) | further results |
| --- | --- | --- | --- | --- | --- |
| CCCCc1sc(N(C)Cc2cccnc2)nc1-c1ccc(OCCCCCOc2ccc(C(=N)NO)cc2)cc1 [Example 145, N-hydroxy-4-(5-[4-(5-butyl-2-(methyl-(pyridin-3-yl-methyl)amino)-1,3-thiazol-4-yl)phenoxy]pentoxy)-benzamidine] | 96.2% | 91.7% |  |  |  |
| Cc1nc(-c2ccc(OCC=CCOc3ccc(C(=N)NO)cc3)cc2)c(C(C)C)s1 [Example 184, N-hydroxy-4-(4-[4-(5-isopropyl-2-methyl-1,3-thiazol-4-yl)-phenoxy]-2-butenyloxy)-benzamidine] | 74.5% | 147% |  |  |  |
| Cc1nc(-c2ccc(OCCCCCOc3ccc(C(=N)NO)cc3)cc2)c(C2CCCC2)s1 [Example 43, N-hydroxy-4-(5-[4-(5-cyclopentyl-2-methyl-1,3-thiazol-4-yl)phenoxy]pentoxy)-benzamidine] |  | 155% |  |  | inhibition at 1 µM [1, 5]: 98.6% |
| CCc1sc(N(CC)CCO)nc1-c1ccc(OCCCCCOc2ccc(C(=N)NO)cc2)cc1 [Example 130, N-hydroxy-4-(5-[4-(5-ethyl-2-(ethyl-(2-hydroxyethyl)-amino)-1,3-thiazol-4-yl)phenoxy]pentoxy)-benzamidine] | 55.8% |  | 100.0% | 37.2% |  |
| CCCCc1sc(C(C)C)nc1-c1ccc(OCCCCCOc2ccc(C(=N)NO)cc2)cc1 [Example 32, N-hydroxy-4-(5-[4-(5-butyl-2-isopropyl-1,3-thiazol-4-yl)phenoxy]pentoxy)-benzamidine] |  |  | 100.0% | 55.1% | inhibition at 1 µM [1, 5]: 59.4% |
| Cc1nc(-c2ccc(OCCCCCOc3ccc(C(=N)NO)c(F)c3)cc2)c(C(C)C)s1 [Example 187, N-hydroxy-2-fluoro-4-(5-[4-(5-isopropyl-2-methyl-1,3-thiazol-4-yl)-phenoxy]-pentoxy)-benzamidine] | 92.5% | 117% |  |  |  |
| N=C(NO)c1ccc(OCCCCCOc2ccc(-c3nc(N4CCCCC4)sc3CC3CCCC3)cc2)cc1 [Example 167, N-hydroxy-4-(5-[4-(5-cyclopentylmethyl-2-piperdino-1,3-thiazol-4-yl)phenoxy]pentoxy)-benzamidine] |  |  |  |  | % inhibitory activity on osteoclastogenesis ([1]; co-culture of bone marrow cells and osteoblast, 7 days, TRAP-positive osteoclasts versus controls): 99.0%; Changes on TBV (% changes vs vehicle control) [2]: 55.2% |
| CCCCc1sc(C2CCCCC2)nc1-c1ccc(OCCCCCOc2ccc(C(=N)NO)cc2)cc1 [Example 35, N-hydroxy-4-(5-[4-(5-butyl-2-cyclohexyl-1,3-thiazol-4-yl)phenoxy]pentoxy)-benzamidine] |  |  | 73.6% | 56.3% | inhibition at 1 µM [1]: 69.8% |
| Cc1nc(-c2ccc(OCCCCCNc3ccc(C(=N)NO)cc3)cc2)c(C(C)C)s1 [Example 177, N-hydroxy-4-(5-[4-(5-isopropyl-2-methyl-1,3-thiazol-4-yl)phenoxy]-pentylamino)-benzamidine] | 96.1% | 88.7% |  |  |  |
| CCNc1nc(-c2ccc(OCCCCCOc3ccc(C(=N)NO)cc3)cc2)c(C)s1 [Example 87, N-hydroxy-4-(5-[4-(2-ethylamino-5-methyl-1,3-thiazol-4-yl)phenoxy]pentoxy)-benzamidine] | 58.1% |  | 97.3% | 49.8% |  |
| CCCNc1nc(-c2ccc(OC(C)CCCOc3ccc(C(=N)NO)cc3)cc2)c(C)s1 (stereo not shown) [Example 88, N-hydroxy-4-(4-[4-(5-methyl-2-propylamino-1,3-thiazol-4-yl)phenoxy]pentoxy)-benzamidine] | 15.9% |  | 94.3% | 48.7% |  |
| CCc1sc(N(C)Cc2ccccc2)nc1-c1ccc(OCCCCCOc2ccc(C(=N)NO)cc2)cc1 [Example 133, N-hydroxy-4-(5-[4-(2-(benzyl-methyl-amino)-5-ethyl-1,3-thiazol-4-yl)phenoxy]pentoxy)-benzamidine] | 76.6% |  | 62.6% | 46.4% |  |
| N=C(NO)c1ccc(OCCCCCOc2ccc(-c3nc(-c4cccnc4)sc3CC3CCCC3)cc2)cc1 [Example 49, N-hydroxy-4-(5-[4-(5-cyclopentylmethyl-2-pyridin-3-yl-1,3-thiazol-4-yl)phenoxy]pentoxy)-benzamidine] |  |  | 83.5% | 39.0% | inhibition at 1 µM [1, 5]: 77.1% |
| Cc1nc(-c2ccc(OCCCCCOc3ccc(C(=N)NO)c(O)c3)cc2)c(C(C)C)s1 [Example 188, 2,N-dihydroxy-4-(5-[4-(5-isopropyl-2-methyl-1,3-thiazol-4-yl)-phenoxy]-pentoxy)-benzamidine] | 82.6% | 92% |  |  |  |
| CCCNc1nc(-c2ccc(OCCCCCOc3ccc(C(=N)NO)cc3)cc2)c(CC)s1 [Example 98, N-hydroxy-4-(5-[4-(5-ethyl-2-propylamino-1,3-thiazol-4-yl)phenoxy]pentoxy)-benzamidine] | 94.7% |  | 77.1% | 26.9% |  |
| Cc1nc(-c2ccc(OCCCCCOc3ccc(C(=N)NO)cc3)cc2)c(CC2CCCC2)s1 [Example 45, N-hydroxy-4-(5-[4-(5-cyclopentylmethyl-2-methyl-1,3-thiazol-4-yl)phenoxy]pentoxy)-benzamidine] |  |  | 75.9% | 37.0% | inhibition at 1 µM [1, 5]: 97.7% |
| CCN(CCO)c1nc(-c2ccc(OCCCCCOc3ccc(C(=N)NO)cc3)cc2)c(C)s1 [Example 121, N-hydroxy-4-(5-[4-(2-(ethyl-(2-hydroxyethyl)-amino)-5-methyl-1,3-thiazol-4-yl)phenoxy]pentoxy)-benzamidine] | 69.4% |  | 100.0% | 41.4% |  |
| CCCCc1sc(N)nc1-c1ccc(OCCCCCOc2ccc(C(=N)NO)cc2)cc1 [Example 63, N-hydroxy-4-(5-[4-(2-amino-5-butyl-1,3-thiazol-4-yl)phenoxy]pentoxy)-benzamidine] | 56.5% |  | 52.5% | 29.3% |  |
| CNc1nc(-c2ccc(OCCCCCOc3ccc(C(=N)NO)cc3)cc2)c(Cc2ccccc2)s1 [Example 107, N-hydroxy-4-(5-[4-(5-benzyl-2-methylamino-1,3-thiazol-4-yl)phenoxy]pentoxy)-benzamidine] | 53.2% |  | 65.2% | 43.9% |  |
| CCCCc1sc(N(CCC)CCC)nc1-c1ccc(OCCCCCOc2ccc(C(=N)NO)cc2)cc1 [Example 146, N-hydroxy-4-(5-[4-(5-butyl-2-dipropylamino-1,3-thiazol-4-yl)phenoxy]pentoxy)-benzamidine] | 94.4% |  | 88.4% | 38.2% |  |
| CCCNc1nc(-c2ccc(OCCCCCOc3ccc(C(=N)NO)cc3)cc2)c(CC2CCCC2)s1 [Example 111, N-hydroxy-4-(5-[4-(5-cyclopentylmethyl-2-propylamino-1,3-thiazol-4-yl)phenoxy]pentoxy)-benzamidine] | 99.5% | 69.3% |  |  |  |
| CCc1sc(N(C)Cc2cccnc2)nc1-c1ccc(OCCCCCOc2ccc(C(=N)NO)cc2)cc1 [Example 134, N-hydroxy-4-(5-[4-(5-ethyl-2-(methyl-(pyridin-3-yl-methyl)amino)-1,3-thiazol-4-yl)phenoxy]pentoxy)-benzamidine] | 63.7% |  | 43.9% | 37.4% |  |
